Source: ChEMBL document CHEMBL1201862, “PubChem BioAssay data set” (2004)
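The compound was tested at five concentrations on cells cultured in 96-well plates, with a 48-hour exposure period. GI50: concentration for 50% inhibition of growth.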 Activity calls are given as the source filed them. Cut-off read from the data, not from the text of the source: active = GI50 up to about 1.1 µM and inactive = higher.

Legend:
Assay in all cases: NCI-60 cell line screen, 48 h
RPMI-8226 = tested on: RPMI-8226
Hs-578T = tested on: Hs-578T
SK-MEL-2 = tested on: SK-MEL-2
MDA-MB-231 = tested on: MDA-MB-231
HL-60 = tested on: HL-60
DU-145 = tested on: DU-145
OVCAR-4 = tested on: OVCAR-4
COLO 205 = tested on: COLO 205
MDA-N = tested on: MDA-N
CAKI-1 = tested on: CAKI-1
HCC 2998 = tested on: HCC 2998
HCT-15 = tested on: HCT-15
SK-OV-3 = tested on: SK-OV-3
NCI-H460 = tested on: NCI-H460
LOX IMVI = tested on: LOX IMVI
K562 = tested on: K562
SNB-75 = tested on: SNB-75
SF-295 = tested on: SF-295
786-0 = tested on: 786-0
SK-MEL-5 = tested on: SK-MEL-5

Row | Structure (SMILES) | GI50 (RPMI-8226) | GI50 (Hs-578T) | GI50 (SK-MEL-2) | GI50 (MDA-MB-231) | GI50 (HL-60) | GI50 (DU-145) | GI50 (OVCAR-4) | GI50 (COLO 205) | GI50 (MDA-N) | GI50 (CAKI-1) | GI50 (HCC 2998) | GI50 (HCT-15) | GI50 (SK-OV-3) | GI50 (NCI-H460) | GI50 (LOX IMVI) | GI50 (K562) | GI50 (SNB-75) | GI50 (SF-295) | GI50 (786-0) | GI50 (SK-MEL-5)
1 | O=C(O)c1cc(O)nc(S)n1 | > 100 µM (inactive) | > 100 µM (inactive) | > 100 µM (inactive) | > 100 µM (inactive) | > 100 µM (inactive) | > 100 µM (inactive) | > 100 µM (inactive) | > 100 µM (inactive) | > 100 µM (inactive) | > 100 µM (inactive) | > 100 µM (inactive) | > 100 µM | > 100 µM (inactive) | > 100 µM (inactive) | > 100 µM (inactive) | > 100 µM (inactive) | 94.2 µM (inactive) | > 100 µM (inactive) | > 100 µM (inactive) | > 100 µM (inactive)
2 | O=C1/C(=C\c2ccc([N+](=O)[O-])cc2)Sc2scc(-c3ccc(O)c(O)c3)[n+]21 | 2.55 µM (inactive) | 14.7 µM (inactive) | 14.7 µM (inactive) | 10.9 µM (inactive) | 2.37 µM (inactive) | 13.5 µM (inactive) | 10.6 µM (inactive) | 2.34 µM (inactive) | 5.41 µM (inactive) | 2.77 µM (inactive) | 4.97 µM (inactive) | 2.33 µM | 12.7 µM (inactive) | 4.06 µM (inactive) | 5.61 µM (inactive) | 3.4 µM (inactive) | 9.25 µM (inactive) | 12.5 µM (inactive) | 3.73 µM (inactive) | 3.87 µM (inactive)
3 | N=C(N)NS(=O)(=O)c1ccc(NC(=O)c2cccc3c(NNc4ccc(S(N)(=O)=O)cc4)c4ccccc4nc23)cc1 | 39.6 µM (inactive) | 59.4 µM (inactive) | > 100 µM (inactive) | 27.5 µM (inactive) | 30.6 µM (inactive) | > 100 µM (inactive) | > 100 µM (inactive) | > 100 µM (inactive) | > 100 µM (inactive) | > 100 µM (inactive) | > 100 µM (inactive) | 38.9 µM | > 100 µM (inactive) | 83.4 µM (inactive) | 20.4 µM (inactive) | 26.6 µM (inactive) | > 100 µM (inactive) | > 100 µM (inactive) | 59.4 µM (inactive) | 55.6 µM (inactive)
4 | Cc1cccc2c1c(=O)c1c(O)c3c(cc1n2C)OC(C)(C)C=C3 | > 10 µM (inactive) | > 10 µM (inactive) | > 10 µM (inactive) | > 10 µM (inactive) | > 10 µM (inactive) | > 10 µM (inactive) | > 10 µM (inactive) | > 10 µM (inactive) | > 10 µM (inactive) | > 10 µM (inactive) | > 10 µM (inactive) | > 10 µM | > 10 µM (inactive) | > 10 µM (inactive) | > 10 µM (inactive) | > 10 µM (inactive) | > 10 µM (inactive) | > 10 µM (inactive) | > 10 µM (inactive) | > 10 µM (inactive)
5 | C=Cc1nc(C#N)c(N)o1 | > 100 µM (inactive) | > 100 µM (inactive) | > 100 µM (inactive) | > 100 µM (inactive) | > 100 µM (inactive) | > 100 µM (inactive) | > 100 µM (inactive) | > 100 µM (inactive) | > 100 µM (inactive) | > 100 µM (inactive) | > 100 µM (inactive) | > 100 µM | > 100 µM (inactive) | > 100 µM (inactive) | > 100 µM (inactive) | > 100 µM (inactive) | > 100 µM (inactive) | > 100 µM (inactive) | > 100 µM (inactive) | > 100 µM (inactive)
6 | Nc1ccc(Oc2ccc(C3(c4ccc(Oc5ccc(N)cc5)cc4)C4CC5CC(C4)CC3C5)cc2)cc1 | 3 µM (inactive) | > 22.1 µM (inactive) | 23 µM (inactive) | 17 µM (inactive) | 5 µM (inactive) | 6.64 µM (inactive) | 8.71 µM (inactive) | 3.72 µM (inactive) | 6.32 µM (inactive) | 15.8 µM (inactive) | 0.322 µM (active) | 4.94 µM |  | 2.42 µM (inactive) | 7.31 µM (inactive) | 3.89 µM (inactive) | 54 µM (inactive) | 6.76 µM (inactive) | 4.57 µM (inactive) | 14.4 µM (inactive)
7 | O=C[C@@H](CO)O[C@H](C=O)c1c[nH]c(=O)[nH]c1=O | 53.8 µM (inactive) | 100 µM (inactive) | 100 µM (inactive) | 74.1 µM (inactive) | 22.3 µM (inactive) | 100 µM (inactive) | 83.9 µM (inactive) | 77.1 µM (inactive) | 70.8 µM (inactive) | 71.6 µM (inactive) | 98.4 µM (inactive) | 57.8 µM | 112 µM (inactive) | 105 µM (inactive) | 93.8 µM (inactive) | 66.1 µM (inactive) | 182 µM (inactive) | 146 µM (inactive) | 128 µM (inactive) | 83.9 µM (inactive)
8 | CCN(CC)CCCC(C)Nc1c2ccc(Cl)cc2nc2ccc(OC)cc12 (stereo unspecified) | 2.05 µM (inactive) | 3.37 µM (inactive) | 1.67 µM (inactive) | 10.1 µM (inactive) | 2.03 µM (inactive) | 3.56 µM (inactive) | 1.65 µM (inactive) | 1.24 µM (inactive) | 1.78 µM (inactive) | 1.59 µM (inactive) | 1.36 µM (inactive) | 2.29 µM | 4.84 µM (inactive) | 0.673 µM (active) | 1.07 µM (active) | 0.824 µM (active) | 1.47 µM (inactive) | 0.729 µM (active) | 0.993 µM (active) | 1.71 µM (inactive)
9 | Cc1ccc2ccc3ccc(C)nc3c2n1 [NEOCUPROINE] | > 100 µM (inactive) | > 100 µM (inactive) | > 100 µM (inactive) | 5.62 µM (inactive) | 0.353 µM (active) | > 100 µM (inactive) |  | 0.491 µM (active) | > 100 µM (inactive) | > 100 µM (inactive) | 6.38 µM (inactive) | > 71.6 µM | > 100 µM (inactive) | 2.19 µM (inactive) | 4.09 µM (inactive) | 0.542 µM (active) | > 52 µM (inactive) | 5.65 µM (inactive) | > 29.7 µM (inactive) | > 26.2 µM (inactive)
10 | O=C(/C=C/c1ccc2c(c1)OCO2)c1ccc(O)cc1 |  | 17.6 µM (inactive) | 16.9 µM (inactive) | 17.4 µM (inactive) | 5.25 µM (inactive) | 16.5 µM (inactive) | 18.4 µM (inactive) | 17.3 µM (inactive) | 10.8 µM (inactive) | 15.2 µM (inactive) | 17.9 µM (inactive) | 13.4 µM | 16.5 µM (inactive) | 15 µM (inactive) | 11.2 µM (inactive) | 5.58 µM (inactive) | 25.1 µM (inactive) | 17.5 µM (inactive) | 1.63 µM (inactive) | 15.6 µM (inactive)
11 | NCC(=O)N1CCN(c2nc(N3CCCC3)c3nc(Cl)c(NCc4ccccc4)nc3n2)CC1 |  | 2.12 µM (inactive) | 1.86 µM (inactive) | 1.85 µM (inactive) | 1.81 µM (inactive) | 2.41 µM (inactive) | 2.15 µM (inactive) | 1.7 µM (inactive) | 1.82 µM (inactive) | 2.44 µM (inactive) | 1.66 µM (inactive) | 1.97 µM | 1.81 µM (inactive) | 1.85 µM (inactive) | 1.78 µM (inactive) |  | 1.57 µM (inactive) | 1.86 µM (inactive) | 1.69 µM (inactive) | 1.72 µM (inactive)
12 | C=C1[C@@H]([C@@]2(C)C=CC(=O)C(C)(C)[C@@H]2CC(=O)OC)CC[C@@]2(C)[C@H](c3ccoc3)OC(=O)[C@H]3O[C@]132 [ANDIROBIN] |  | > 100 µM (inactive) | > 100 µM (inactive) | > 100 µM (inactive) | 62.8 µM (inactive) | > 100 µM (inactive) | > 100 µM (inactive) | 93.1 µM (inactive) | > 100 µM (inactive) | > 100 µM (inactive) | > 100 µM (inactive) | > 100 µM | > 100 µM (inactive) | > 100 µM (inactive) | > 100 µM (inactive) |  | 46.2 µM (inactive) | 87.5 µM (inactive) | > 100 µM (inactive) | 68.2 µM (inactive)
13 | O=c1cc(CO)oc(C(O)c2ccccc2)c1O (stereo unspecified) | > 100 µM (inactive) | > 100 µM (inactive) | > 100 µM (inactive) | > 100 µM (inactive) | > 100 µM (inactive) | > 100 µM (inactive) | > 100 µM (inactive) | > 100 µM (inactive) | > 100 µM (inactive) | > 100 µM (inactive) | > 100 µM (inactive) | > 100 µM | > 100 µM (inactive) | > 100 µM (inactive) | > 100 µM (inactive) |  | > 100 µM (inactive) | > 100 µM (inactive) | > 100 µM (inactive) | > 100 µM (inactive)
14 | COc1c(-c2nc3ccc(N4CCN(C)CC4)nc3[nH]2)cc(OC)c2c1nc(CO)n2C | > 100 µM (inactive) | > 100 µM (inactive) | > 100 µM (inactive) | > 100 µM (inactive) | 81.7 µM (inactive) | > 100 µM (inactive) | > 100 µM (inactive) | 75.7 µM (inactive) | > 100 µM (inactive) | > 100 µM (inactive) | > 100 µM (inactive) | > 100 µM | > 100 µM (inactive) | > 100 µM (inactive) | > 100 µM (inactive) | > 100 µM (inactive) | 31.1 µM (inactive) | > 100 µM (inactive) | > 100 µM (inactive) | 
